# Patent US20240116946A1 (Gilead Sciences, Inc., priority 2022, published 2024)
# Like-named read-outs stand apart in the source and are kept apart here.
# Experiments:
# SARS-CoV-2-NLuc = assay: microbe, parasite or virus in culture; assay type: cell-based, SARS Coronavirus 2
# [1] = target: recombinant SARS-CoV-2 Main protease (Mpro) (Severe acute respiratory syndrome coronavirus 2 (2019-nCoV) (SARS-CoV-2), UniProt P0DTD1); assay: Cov Mpro Biochemical IC50 Assay; settings: read-out: MPro IC50
# [2] = Severe acute respiratory syndrome coronavirus, 48 h, read-out: MPro EC50
# [3] = recombinant SARS-CoV-2 Mpro 7.5 nM, fluorogenic peptide substrate 40 μM
# [4] = recombinant SARS-CoV-2 Mpro, fluorogenic peptide substrate
# [5] = Severe acute respiratory syndrome coronavirus, 48 h; read-out: MPro EC50
SMILES,EC50 (SARS-CoV-2-NLuc; [2]),"IC50 [1, 3]","IC50 [1, 4]",EC50 (SARS-CoV-2-NLuc; [5]),EC50 (SARS-CoV-2-NLuc; read-out: MPro EC50)
"COc1cc(-c2cc3c(s2)c(=O)n(-c2cncc4nn(C)c(C)c24)c(=O)n3CCC#N)c(Cl)cc1F [Example 926, 3-(6-(2-chloro-4-fluoro-5-methoxyphenyl)-3-(2,3-dimethyl-2H-pyrazolo[3,4-c]pyridin-4-yl)-2,4-dioxo-3,4-dihydrothieno[3,2-d]pyrimidin-1(2H)-yl)propanenitrile]",8.89 nM,6.74 nM,,,
COc1cc(-c2cc3[nH]c(=O)n(-c4cncc5ccccc45)c(=O)c3s2)c(C#N)cc1F [Example 537],19.2 nM,6.15 nM,,,
COc1ccc(C#N)c(-c2cc3[nH]c(=O)n(-c4cncc5ccc(F)cc45)c(=O)c3s2)c1 [Example 589],23.7 nM,5.01 nM,,,
CCCn1cc(-c2cccc(Cl)c2-c2ccc3c(=O)n(-c4cncc5ccccc45)c(=O)[nH]c3c2)c(C(F)(F)F)n1 [Example 200],36 nM,,112 nM,,
O=c1[nH]c2cc(-c3ccccc3Cl)cc(F)c2c(=O)n1-c1cncc2ccccc12 [Example 222],151 nM,,153 nM,,
COc1ccc(C#N)c(-c2cc3[nH]c(=O)n(-c4cncc5cc(C(C)(C)O)sc45)c(=O)c3s2)c1 [Example 514],568 nM,15.8 nM,,,
N#CCCn1c(=O)n(-c2cnccn2)c(=O)c2sc(-c3ccccc3Cl)cc21 [Example 828],458 nM,94.1 nM,,,
COc1cc(-c2cc3[nH]c(=O)n(-c4cncc5cc(C(C)(C)O)sc45)c(=O)c3s2)c(Cl)cc1F [Example 513],45.9 nM,7.18 nM,,,
COc1cccc(Cl)c1-c1cnc2c(=O)n(-c3cncc4ccccc34)c(=O)[nH]c2c1 [Example 48],,,95.7 nM,277 nM,
COc1cc(-c2cc3c(s2)c(=O)n(-c2cncc4cnn(C)c24)c(=O)n3CC#N)c(C#N)cc1F [Example 693],94.2 nM,2.56 nM,,,
N#CCCn1c(=O)n(-c2cncc(N3CCOCC3)c2)c(=O)c2sc(-c3ccccc3C#N)cc21 [Example 817],,> 1000 nM,,> 1000 nM,
COc1ccc(Cl)c(-c2cc3[nH]c(=O)n(-c4cncc5nc(C67CC(F)(C6)C7)n(C)c45)c(=O)c3s2)c1 [Example 436],,164 nM,,489 nM,
COc1nn(C)cc1-c1cccc(Cl)c1-c1ccc2c(=O)n(-c3cncc4ccccc34)c(=O)[nH]c2c1 [Example 273],6.41 nM,,14.9 nM,,
COc1cc(-c2cc3[nH]c(=O)n(-c4cncc5[nH]cc(C)c45)c(=O)c3s2)c(Cl)cc1F [Example 767],20.2 nM,5.16 nM,,,
Cn1cc(-c2cccc(Cl)c2-c2ccc3c(=O)n(-c4cncc5ccccc45)c(=O)[nH]c3c2)nn1 [Example 310],140 nM,,55.4 nM,,
CN(C)C(=O)c1cccc(-c2cccc(Cl)c2-c2ccc3c(=O)n(-c4cncc5ccccc45)c(=O)[nH]c3c2)c1 [Example 188],59.4 nM,,121 nM,,
N#Cc1cccc(-c2cccc(Cl)c2-c2ccc3c(=O)n(-c4cncc5ccccc45)c(=O)[nH]c3c2)c1 [Example 184],40 nM,,92.5 nM,,
"COc1ccc(Cl)c(-c2cc3[nH]c(=O)n(-c4cncc5ccccc45)c(=O)c3s2)c1 (single isomer, unassigned) [Example 466, 6-(2-chloro-5-methoxyphenyl)-3-(isoquinolin-4-yl)thieno[3,2-d]pyrimidine-2,4(1H,3H)-dione]",,156 nM,,,152 nM
O=c1[nH]c2nc(-c3ccccc3)ccc2c(=O)n1-c1cncc2ccccc12 [Example 31],,,14800 nM,> 50000 nM,
COc1cc(-c2cc3c(s2)c(=O)n(-c2cncc4ccc(Cl)cc24)c(=O)n3CCC#N)c(Cl)cc1F [Example 946],12.9 nM,6.82 nM,,,
O=c1[nH]c2cc(-c3c(Cl)cccc3-c3cnc4n3CCC4)sc2c(=O)n1-c1cncc2ccccc12 [Example 529],34.1 nM,8.44 nM,,,
"N#Cc1ccccc1-c1cc2[nH]c(=O)n(-c3cncc4ccccc34)c(=O)c2s1 [Example 530, 2-(3-(isoquinolin-4-yl)-2,4-dioxo-1,2,3,4-tetrahydrothieno[3,2-d]pyrimidin-6-yl)benzonitrile]",84.3 nM,12 nM,,,
O=c1[nH]c2cc(-c3ccccc3Cl)sc2c(=O)n1-c1cncc2c1cnn2CC(F)(F)F [Example 492],4840 nM,> 50000 nM,,,
COc1ccc(Cl)c(-c2ccc3c(=O)n(-c4cncc5c(Cl)cccc45)c(=O)[nH]c3c2)c1 [Example 593],5790 nM,38400 nM,,,

SMILES,EC50 (SARS-CoV-2-NLuc; [2]),"IC50 [1, 3]","IC50 [1, 4]",EC50 (SARS-CoV-2-NLuc; [5]),EC50 (SARS-CoV-2-NLuc; read-out: MPro EC50)
"COc1ccc(Cl)c(-c2cc3c(s2)c(=O)n(-c2cncc4ccccc24)c(=O)n3CC#N)c1 (atropisomer, axis not shown) [Example 702]",2.4 nM,< 2.98 nM,,,
COc1ccc(Cl)c(-c2cc3[nH]c(=O)n(-c4cncc5ccc(N6C(=O)COC[C@@H]6C)cc45)c(=O)c3s2)c1 [Example 574],,6.37 nM,,,18.5 nM
COc1cnc(C#N)c(-c2cc3c(s2)c(=O)n(-c2cncc4nn(C)c(C)c24)c(=O)n3CCC#N)c1 [Example 1087],> 1000 nM,60.2 nM,,,
Cc1cccc(C#N)c1-c1cc2c(s1)c(=O)n(-c1cncc3cnn(C)c13)c(=O)n2CCC#N [Example 783],455 nM,199 nM,,,
Cc1cc(Cl)cc(Cl)c1-c1cc2[nH]c(=O)n(-c3cncc4ccccc34)c(=O)c2s1 [Example 721],478 nM,705 nM,,,
"Cc1nn(C2CCN(C(=O)OC(C)(C)C)CC2)cc1-c1cccc(Cl)c1-c1ccc2c(=O)n(-c3cncc4ccccc34)c(=O)[nH]c2c1 [Example 266, tert-butyl 4-[4-[3-chloro-2-[3-(4-isoquinolyl)-2,4-dioxo-1H-quinazolin-7-yl]phenyl]-3-methyl-pyrazol-1-yl]piperidine-1-carboxylate]",95.1 nM,,36.4 nM,,
O=c1[nH]c2cc(-c3c(Cl)cccc3-c3cnn4c3COCC4)sc2c(=O)n1-c1cncc2ccccc12 [Example 523],5.79 nM,4.05 nM,,,
COc1cnc(Cl)c(-c2cc3c(s2)c(=O)n(-c2cncc4ccccc24)c(=O)n3CCC#N)c1 [Example 942],13.2 nM,12 nM,,,
"COc1cc(-c2cc3c(s2)c(=O)n(-c2cncc4nn(C)c(C)c24)c(=O)n3CCC#N)c(Cl)cc1F (single isomer, unassigned) [Example 1041, 3-(6-(2-chloro-4-fluoro-5-methoxyphenyl)-3-(2,3-dimethyl-2H-pyrazolo[3,4-c]pyridin-4-yl)-2,4-dioxo-3,4-dihydrothieno[3,2-d]pyrimidin-1(2H)-yl)propanenitrile]",,2.99 nM,,,5.72 nM
O=c1[nH]c2cc(-c3c(Cl)cccc3-c3ccc4c(c3)OC(F)(F)O4)sc2c(=O)n1-c1cncc2ccccc12 [Example 353],31.5 nM,,143 nM,,
"COc1ccc(Cl)c(-c2cc3[nH]c(=O)n(-c4cncc(CCC(=O)N5CCOCC5)c4)c(=O)c3s2)c1 [Example 575, 6-(2-chloro-5-methoxy-phenyl)-3-[5-(3-morpholino-3-oxo-propyl)-3-pyridyl]-1H-thieno[3,2-d]pyrimidine-2,4-dione]",,6.66 nM,,235 nM,
"N#CCCn1c(=O)n(-c2cncc3ccccc23)c(=O)c2sc(-c3ccccc3C#N)cc21 (single isomer, unassigned) [Example 964, 2-(1-(2-cyanoethyl)-3-(isoquinolin-4-yl)-2,4-dioxo-1,2,3,4-tetrahydrothieno[3,2-d]pyrimidin-6-yl)benzonitrile]",,62.5 nM,,,87 nM
"COc1cc(-c2cc3c(s2)c(=O)n(-c2cncc4cccc(C)c24)c(=O)n3CCC#N)c(Cl)cc1F (atropisomer, axis not shown) [Example 920]",4.25 nM,5.5 nM,,,
COc1cc(-c2cc3c(s2)c(=O)n(-c2cnccc2C(F)(F)F)c(=O)n3CCC#N)c(C#N)cc1F [Example 862],210 nM,95.3 nM,,,
COc1cc(-c2cc3c(s2)c(=O)n(-c2cncc4nc(C)n(C)c24)c(=O)n3CC2(C#N)CC2)c(Cl)cc1F [Example 707],8.9 nM,2.13 nM,,,
COc1cc(-c2cc3c(s2)c(=O)n(-c2cncc4cccc(F)c24)c(=O)n3CC#N)c(Cl)cc1F [Example 703],3.74 nM,3.58 nM,,,
Cc1cc(-c2cccc(Cl)c2-c2ccc3c(=O)n(-c4cncc5ccccc45)c(=O)[nH]c3c2)ccc1C(N)=O [Example 244],41 nM,,18.1 nM,,
O=c1[nH]c2cc(-c3cc4c(cc3Cl)OCO4)sc2c(=O)n1-c1cncc2ccccc12 [Example 347],642 nM,,441 nM,,
COc1cc(-c2cc3c(s2)c(=O)n(-c2cncc4nc(-c5coc(C)n5)n(C)c24)c(=O)n3CCC#N)c(Cl)cc1F [Example 757],40.3 nM,11.4 nM,,,
COc1cccc(-c2ccc3c(=O)n(-c4cncc5ccccc45)c(=O)[nH]c3c2)c1Cl [Example 295],13500 nM,,7430 nM,,
N#CCCn1c(=O)n(-c2cccnc2)c(=O)c2sc(-c3ccccc3C#N)cc21 [Example 801],,60.6 nM,,231 nM,
Cc1nnn(C)c1-c1cccc(Cl)c1-c1ccc2c(=O)n(-c3cncc4ccccc34)c(=O)[nH]c2c1 [Example 313],145 nM,,40.8 nM,,
O=c1[nH]c2cc(-c3c(Cl)cccc3-c3ccnc(C4CC4)c3)ccc2c(=O)n1-c1cncc2ccccc12 [Example 318],< 3.42 nM,,8.65 nM,,
N#CCCn1c(=O)n(-c2cncc3ccccc23)c(=O)c2sc(-c3ccc(F)cc3Cl)cc21 [Example 827],10.4 nM,10.2 nM,,,
